Experimental data as given in article PMC6292860, “Characterisation of small molecule ligands 4CMTB and 2CTAP as modulators of human FFA2 receptor signalling” (Scientific Reports, 2018).

Key:
parental CHO-K1 cells = assay: Ca^2+, pERK1/2 and cAMP assays on the parental CHO-K1 cell line (specificity control); format: cell-based, Chinese Hamster; conditions: highest concentration of ligand
Procedure: These cells were cultured in Ham’s F12, 10% FBS and 1% penicillin streptomycin. Cells were passaged when 70–80% confluent using 0.05% trypsin: EDTA in phosphate-buffered saline (PBS), pH 7.4. All cells in culture, once seeded, were incubated at 37 °C with 5% CO2.
(§1) Fluo-4 Direct assay was preformed according to manufacturer’s instructions with additional wash steps and read on a Fluorescent Imaging Plate Reader (FLIPR) (Molecular Devices, California). Briefly, 10,000 cells were seeded/well in 10 μL of media in a 384 well block with a clear bottom plate and incubated overnight at 37 °C. An equivalent volume of 2x Flou-4 Direct calcium reagent was added to each well and incubated for 30 min at 37 °C and a further 30 min at room temperature. Ligand addition was carried out on the FLIPR instrument whilst fluorescence was measured at excitation 494 nm and emission at 516 nm for five minutes to enable capture of the fast calcium response.
(§2) To measure pERK1/2 we utilised the high throughput AlphaScreen SureFire pERK1/2 (Thr202/Tyr204) Assay Kit (PerkinElmer)[42]. Detection of pERK1/2 is enabled by immuno-sandwich capture of endogenous pERK1/2 in cell lysates. Antibody-coated AlphaScreen beads generate a highly amplified signal when near due to binding of pERK1/2. Cells were seeded at 50,000 cells/well in a 96 well tissue culture plate and incubated for 24 hours at 37 °C. Cells were then incubated in serum free media overnight. Test compounds were added to the cells and incubated for 10 min at room temperature before cells were lysed and assayed for pERK1/2 using the AlphaScreen-based detection kit according to the manufacturer’s protocol (PerkinElmer).
The LANCE Ultra cAMP homogeneous time resolved resonance energy transfer (TR-FRET) immunoassay (PerkinElmer) provides a highly sensitive and robust method for the detection of cAMP. […] Time- resolved FRET signals were measured after excitation at 320 nm on the EnVision. […]

hFFA2 [1] = biological target: T1, hFFA2 (Homo sapiens, UniProt O15552); assay: Fluo-4 Direct Ca^2+ flux assay in CHO cells stably expressing hFFA2; format: cell-based; conditions: for Ca^2+ response (in words): ligand alone
T1 construct: host or cells: CHO-K1
T1 sequence (O15552 1-330): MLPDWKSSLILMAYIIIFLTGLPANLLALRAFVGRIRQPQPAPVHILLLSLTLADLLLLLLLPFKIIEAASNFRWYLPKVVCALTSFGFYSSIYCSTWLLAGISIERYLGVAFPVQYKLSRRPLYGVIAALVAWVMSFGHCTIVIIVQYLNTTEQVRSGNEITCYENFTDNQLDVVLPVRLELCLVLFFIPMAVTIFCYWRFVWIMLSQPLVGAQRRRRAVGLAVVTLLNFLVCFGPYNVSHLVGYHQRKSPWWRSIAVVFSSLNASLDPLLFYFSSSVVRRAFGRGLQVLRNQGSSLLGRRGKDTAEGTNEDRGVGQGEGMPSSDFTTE
Procedure: (§3) CHO-K1, stably expressing human FFA2 (CHO-FFA2) was purchased from DiscoverX Corporation. CHO-FFA2 cells were cultured in a buffer of Ham’s F12, 10% FBS, 1% penicillin streptomycin and 800 μg/mL of G418 (Geneticin) (Invitrogen Life Technologies). Cells were passaged when 70–80% confluent using 0.05% trypsin with 1 mM EDTA in phosphate-buffered saline (PBS), pH 7.4. All cells in culture, once seeded, were incubated at 37 °C with 5% CO2.
as §1

hFFA2 [2] = biological target: T1, hFFA2; assay: AlphaScreen SureFire pERK1/2 (Thr202/Tyr204) assay in CHO cells stably expressing hFFA2; format: cell-based; conditions: for pERK1/2 response (in words): ligand alone; for Emax: CHO
Procedure: as §3, §2

FFA2 = test system: FFA2; parameters: method as in earlier work; conditions: cited from earlier work
[3] = test system: intestinal ischemia reperfusion injury (IRI); assay: Mouse model of intestinal ischemia reperfusion injury (superior mesenteric artery occlusion); format: in vivo; conditions: for Circulating neutrophil numbers: IRI groups, WT mice; for Circulating neutrophil numbers / Mucosal (villi) damage, histopathological score of H&E-stained ileum / Neutrophil infiltration into the ileum (esterase-stained neutrophils, myeloperoxidase): oral gavage; for Mucosal (villi) damage, histopathological score of H&E-stained ileum / Neutrophil infiltration into the ileum (esterase-stained neutrophils, myeloperoxidase): WT IRI groups; for Circulating neutrophil counts: sham-operated mice, oral gavage 48 h, 24 h and 1 h prior to surgery, mean ± SEM
Description: Specific pathogen-free (SPF) conventional C57BL/6J (WT) mice were obtained from the […] (ARC) and maintained at The University of Queensland Biological Resources Animal Facilities under specific pathogen-free conditions.
FFA2^−/− knockout mice were obtained from Monash University and bred at The University of Queensland Biological Resources Animal Facilities under SPF conditions. Male mice 10–12 weeks weighing 20–30 g were used for all experiments. All experiments were performed in accordance with the guidelines and approval of The University of Queensland Animal Ethics Committee.
After 35 minutes the ligature was removed to allow for a reperfusion period of 150 minutes. […] Mice were orally gavaged with ligand 48 hours, 24 hours and 1 hour prior to surgery. Mice were euthanised and small intestinal tissue or whole blood [collected in 1 mg/mL EDTA and 0.1 mg/mL nafamostat mesylate (FUT-175)] was collected for further analysis.

hFFA2 [4] = biological target: T1, hFFA2; assay: LANCE Ultra cAMP assay, inhibition of forskolin-induced cAMP, in CHO cells stably expressing hFFA2; format: cell-based; conditions: for Emax: CHO; for EC50: read-out: cAMP pEC50 (converted)
Procedure: as §3
The LANCE Ultra cAMP homogeneous time resolved resonance energy transfer (TR-FRET) immunoassay (PerkinElmer) provides a highly sensitive and robust method for the detection of cAMP. Briefly, cells were re-suspended in stimulation buffer (1 x HBSS, 5 mM HEPES, 0.5 mM IBMX, 0.1% BSA (pH7.4)) and transferred to 384-proxiplate (PerkinElmer) at a density of 2000 cells/well. Cells were stimulated with agonist and forskolin (5 μM), where appropriate, and incubated for 30 min. EucAMP tracer and ULight-anti-cAMP solutions were added to the cells and incubated for 1 hour at room temperature. Time- resolved FRET signals were measured after excitation at 320 nm on the EnVision. All data were normalized to the functional response obtained with 1.67 mM sodium acetate.

[5] = 2CTAP + Acetate (2CTAP dose response in the presence of 2 mM acetate, Fig. 6A), read-out: Ca^2+ pEC50 (converted)
[6] = antagonist mode, concentration-dependent decrease in Ca^2+, read-out: Ca^2+ pEC50 (Antagonist) (converted)
[7] = antagonist mode, inhibition of ERK activation by 2 mM acetate, read-out: pERK1/2 pEC50 (Antagonist) (converted)
[8] = + PTX, read-out: pERK1/2 pEC50 (converted)
[9] = + PTX, percentage of the maximal response from acetate
[10] = ligand alone (agonist mode), CHO-hFFA2, expressed as a percentage of the maximal response from acetate
[11] = ligand alone (agonist mode), CHO-hFFA2, read-out: pERK1/2 pEC50 (converted)
[12] = inhibition of forskolin-induced cAMP, ligand alone, expressed as a percentage of the maximal response from acetate
[13] = inhibition of forskolin-induced cAMP, ligand alone (agonist mode), CHO-hFFA2
[14] = ligand alone (agonist mode), CHO-hFFA2
[15] = 4CMTB at 20 µM on an acetate dose response curve
[16] = 4CMTB below 1 µM on an acetate dose response curve

| EC50 (hFFA2 [1]; [5]) [nM] | EC50 (hFFA2 [1]; [6]) [nM] | Ca^2+ response (in words) (hFFA2 [1]; CHO-hFFA2) | EC50 (hFFA2 [2]; [7]) [nM] | pERK1/2 response (in words) (hFFA2 [2]; CHO-hFFA2) | forskolin-induced cAMP response (in words) (hFFA2 [4]; ligand alone, CHO-hFFA2) | EC50 (hFFA2 [2]; [8]) [nM] | Emax (hFFA2 [2]; [9]) [%] | Emax (hFFA2 [2]; [10]) [%] | EC50 (hFFA2 [2]; [11]) [nM] | Emax (hFFA2 [4]; [12]) [%] | EC50 (hFFA2 [4]; [13]) [nM] | Structure (SMILES) | Response in parental CHO-K1 cells (parental CHO-K1 cells) | Circulating neutrophil numbers [3] | Neutrophil infiltration into the ileum (esterase-stained neutrophils, myeloperoxidase) [3] | also measured |
| --- | --- | --- | --- | --- | --- | --- | --- | --- | --- | --- | --- | --- | --- | --- | --- | --- |
| – | – | did not induce a Ca^2+ response | – | – | – | 20000 | 20 | 85 | 1580 | 83 | 100 | CC(C)C(C(=O)Nc1nccs1)c1ccc(Cl)cc1 (racemic) [R/S-4CMTB, 2-(4-chlorophenyl)-3-methyl-N-(thiazole-2-yl)butanamide] | No response | – | – | – |
| – | – | – | – | – | – | – | – | – | – | – | – | CC(=O)O [Acetate] | No response | – | – | Ca^2+ pEC50 (hFFA2 [1]; [14]): 3.8; Ca^2+ Emax (hFFA2 [1]; [10]): 100; pERK1/2 pEC50 (hFFA2 [2]; [14]): 3.6; pERK1/2 Emax (hFFA2 [2]; [10]): 100; cAMP pEC50 (hFFA2 [4]; [13]): 3.9; cAMP Emax (hFFA2 [4]; [12]): 100 |
| 251 | 251 | decreased Ca^2+ | 2510 | no effects | no effects | – | – | – | – | – | – | O=C(O)C[C@@H](C(=O)Nc1nc(-c2ccccc2Cl)cs1)c1ccccc1 [R-2CTAP, 4-((4-(2-chlorophenyl)thiazole-2-yl)amino)-4oxo-3-phenylbutanoic acid] | – | – | – | – |
| – | – | no effect | – | – | – | 20000 | 16 | 60 | 10000 | 74 | 6310 | CC(C)[C@@H](C(=O)Nc1nccs1)c1ccc(Cl)cc1 [R-4CMTB, 2-(4-chlorophenyl)-3-methyl-N-(thiazole-2-yl)butanamide] | – | comparable to vehicle control IRI-groups | did not reduce neutrophil infiltration below the IRI group | Allosteric modulation of acetate Ca^2+ response (hFFA2 [1]; [15]): mild effect on the potency of acetate but did not increase the efficacy; Allosteric modulation of acetate Ca^2+ response (hFFA2 [1]; [16]): negative allosteric modulators; Circulating neutrophil counts [3]: 0.81 × 10^6 ± 0.11 |
| 1580 | 2000 | decreased Ca^2+ | 39800 | no effects | no effects | – | – | – | – | – | – | O=C(O)C[C@H](C(=O)Nc1nc(-c2ccccc2Cl)cs1)c1ccccc1 [S-2CTAP, 4-((4-(2-chlorophenyl)thiazole-2-yl)amino)-4oxo-3-phenylbutanoic acid] | – | – | – | – |
| – | – | – | – | – | – | 15800 | 22 | 102 | 794 | 99 | 158 | CC(C)[C@H](C(=O)Nc1nccs1)c1ccc(Cl)cc1 [S-4CMTB, 2-(4-chlorophenyl)-3-methyl-N-(thiazole-2-yl)butanamide] | – | comparable to vehicle control IRI-groups | increased neutrophil infiltration into the villi | Allosteric modulation of acetate Ca^2+ response (hFFA2 [1]; [15]): increased both the potency and efficacy of acetate; Allosteric modulation of acetate Ca^2+ response (hFFA2 [1]; [16]): negative allosteric modulators; Emax (hFFA2 [1]; [10]): 55%; EC50 (hFFA2 [1]; ligand alone (agonist mode), CHO-hFFA2, read-out: Ca^2+ pEC50 (converted)): 2000 nM; Mucosal (villi) damage, histopathological score of H&E-stained ileum [3]: did not reduce villi damage; Circulating neutrophil counts [3]: 0.92 × 10^6 ± 0.07 |

| Structure (SMILES) | EC50 (hFFA2 [1]; [5]) [nM] | EC50 (hFFA2 [1]; [6]) [nM] | Ca^2+ response (in words) (hFFA2 [1]; CHO-hFFA2) | EC50 (hFFA2 [2]; [7]) [nM] | pERK1/2 response (in words) (hFFA2 [2]; CHO-hFFA2) | forskolin-induced cAMP response (in words) (hFFA2 [4]; ligand alone, CHO-hFFA2) | EC50 (hFFA2 [2]; [8]) [nM] | Emax (hFFA2 [2]; [9]) [%] | Emax (hFFA2 [2]; [10]) [%] | EC50 (hFFA2 [2]; [11]) [nM] | Emax (hFFA2 [4]; [12]) [%] | EC50 (hFFA2 [4]; [13]) [nM] | Response in parental CHO-K1 cells (parental CHO-K1 cells) | Circulating neutrophil numbers [3] | Neutrophil infiltration into the ileum (esterase-stained neutrophils, myeloperoxidase) [3] | also measured |
| --- | --- | --- | --- | --- | --- | --- | --- | --- | --- | --- | --- | --- | --- | --- | --- | --- |
| O=C(O)CC(C(=O)Nc1nc(-c2ccccc2Cl)cs1)c1ccccc1 (racemic) [R/S-2CTAP, 4-((4-(2-chlorophenyl)thiazole-2-yl)amino)-4oxo-3-phenylbutanoic acid] | 631 | 1000 | concentration-dependent decrease in Ca^2+ | 15800 | no effect | no effect | – | – | – | – | – | – | No response | comparable to vehicle control IRI-groups | did not reduce neutrophil infiltration below the IRI group | Concentration of maximal response in the GTPγS assay (FFA2): 60 nM; Protective effects in IRI in the absence of FFA2 ([3]; FFA2^−/− mice, IRI): abolished; Mucosal (villi) damage, histopathological score of H&E-stained ileum [3]: mucosal damage was significantly reduced |
